Source: ChEMBL document CHEMBL3627645, “Synthesis and activities of new indolopyrrolobenzodiazepine derivatives toward acute myeloid leukemia cells” (Bioorg Med Chem, 2015)
Calls of active or inactive are those of the source. The rule behind the calls is not given here.

System: NRK
Experiment: Induction of apoptosis in NRK cells assessed as chromatin condensation and fragmentation at 10 to 100 uM after 48 hrs by Hoechst 33342 staining-based UV-vis microscopic analysis
Format: cell-based
Details: rat

Q: With `O=Cc1cn2c3c1ccc1c4ccccc4n(c13)CC(OCCCN1CCCCC1)C2` (stereo not given) as the compound, how does the Activity read?
A: Non-toxic

Q: How did the Activity turn out when `O=Cc1cn2c3c1ccc1c4ccccc4n(c13)CC(OCCO)C2` (stereo not given) was run?
A: Toxic

Q: With `N#CCOC1Cn2cc(C=O)c3ccc4c5ccccc5n(c4c32)C1` (stereo not given) as the compound, how does the Activity read?
A: Toxic

Q: Which Activity does the source give for `O=Cc1cn2c3c1ccc1c4ccccc4n(c13)CC(OCCCBr)C2` (stereo not given) here?
A: Non-toxic

System: IPC81
Experiment: Induction of apoptosis in rat IPC81 cells assessed as chromatin condensation and fragmentation at 10 to 100 uM after 48 to 72 hrs by Hoechst 33342 staining-based visual and UV microscopic analysis
Format: functional, cell-based
Details: not given

Q: How did the Activity turn out when `O=Cc1cn2c3c1ccc1c4ccccc4n(c13)CC(OCCCN1CCCCC1)C2` (stereo not given) was run?
A: Active

Q: For `O=Cc1cn2c3c1ccc1c4ccccc4n(c13)CC(OCCO)C2` (stereo not given), which Activity is on record?
A: Active

Q: Which Activity does the source give for `N#CCOC1Cn2cc(C=O)c3ccc4c5ccccc5n(c4c32)C1` (stereo not given) here?
A: inactive

Q: With `O=Cc1cn2c3c1ccc1c4ccccc4n(c13)CC(OCCCBr)C2` (stereo not given) as the compound, how does the Activity read?
A: inactive

Biological target: T1, Serine/threonine-protein kinase pim-1 (Homo sapiens, UniProt P11309)
Experiment: Inhibition of human Pim-1 using RSRHSSYPAGT as substrate assessed as residual activity at 10 uM measured for 30 mins in presence of [gamma-33P]-ATP relative to control
Details: not given
Target sequence in this assay (P11309 whole entry, looked up): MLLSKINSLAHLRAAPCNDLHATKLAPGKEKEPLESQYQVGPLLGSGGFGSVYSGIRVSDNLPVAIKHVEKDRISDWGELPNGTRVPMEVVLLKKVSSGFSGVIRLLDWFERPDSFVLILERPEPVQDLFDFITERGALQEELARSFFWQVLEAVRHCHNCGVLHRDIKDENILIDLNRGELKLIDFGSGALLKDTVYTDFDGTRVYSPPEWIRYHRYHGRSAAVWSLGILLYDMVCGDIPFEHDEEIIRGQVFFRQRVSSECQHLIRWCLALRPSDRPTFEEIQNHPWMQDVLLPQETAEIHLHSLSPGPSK

Q: Which Activity does the source give for `O=Cc1cn2c3c1ccc1c4ccccc4n(c13)CC(OCCCN1CCOCC1)C2` (stereo not given) here?
A: 28%

Q: With `O=Cc1cn2c3c1ccc1c4ccccc4n(c13)CC(OCCN1CCCC1)C2` (stereo not given) as the compound, how does the Activity read?
A: 17.8%

Q: For `O=Cc1cn2c3c1ccc1c4ccccc4n(c13)CC(OCCCN1CCCCC1)C2` (stereo not given), which Activity is on record?
A: 31%

Q: With `O=Cc1cn2c3c1ccc1c4ccccc4n(c13)CC(OCCCN1CCCC1)C2` (stereo not given) as the compound, how does the Activity read?
A: 24.1%

Q: Which Activity does the source give for `CCN(CC)CCCOC1Cn2cc(C=O)c3ccc4c5ccccc5n(c4c32)C1` (stereo not given) here?
A: 29%

Q: `Cc1ccc(S(=O)(=O)OCCOC2Cn3cc(C=O)c4ccc5c6ccccc6n(c5c43)C2)cc1` (stereo not given) was tested. Which Activity did it give?
A: 102%

Q: `CN1CCN(CCOC2Cn3cc(C=O)c4ccc5c6ccccc6n(c5c43)C2)CC1` (stereo not given) was tested. Which Activity did it give?
A: 35%

Q: Which Activity does the source give for `O=Cc1cn2c3c1ccc1c4ccccc4n(c13)CC(OCCO)C2` (stereo not given) here?
A: 9%

Q: How did the Activity turn out when `N#CCOC1Cn2cc(C=O)c3ccc4c5ccccc5n(c4c32)C1` (stereo not given) was run?
A: 1.9%

Q: With `O=Cc1cn2c3c1ccc1c4ccccc4n(c13)CC(OCCCBr)C2` (stereo not given) as the compound, how does the Activity read?
A: 19%

System: IPC81
Experiment: Induction of apoptosis in rat IPC81 cells overexpressing Bcl-2 assessed as chromatin condensation and fragmentation at 10 to 100 uM after 48 hrs by Hoechst 33342 staining-based visual and UV microscopic analysis
Format: functional, cell-based
Details: not given

Q: With `O=Cc1cn2c3c1ccc1c4ccccc4n(c13)CC(OCCCN1CCCCC1)C2` (stereo not given) as the compound, how does the Activity read?
A: Active

Q: Which Activity does the source give for `O=Cc1cn2c3c1ccc1c4ccccc4n(c13)CC(OCCO)C2` (stereo not given) here?
A: inactive

Q: For `N#CCOC1Cn2cc(C=O)c3ccc4c5ccccc5n(c4c32)C1` (stereo not given), which Activity is on record?
A: inactive

Q: How did the Activity turn out when `O=Cc1cn2c3c1ccc1c4ccccc4n(c13)CC(OCCCBr)C2` (stereo not given) was run?
A: inactive

Biological target: T1, Serine/threonine-protein kinase pim-1
Experiment: Inhibition of human Pim-1 using RSRHSSYPAGT as substrate assessed as residual activity at 1 uM measured for 30 mins in presence of [gamma-33P]-ATP relative to control
Details: not given
Target sequence in this assay (P11309 whole entry, looked up): as above

Q: Which Activity does the source give for `O=Cc1cn2c3c1ccc1c4ccccc4n(c13)CC(OCCCN1CCOCC1)C2` (stereo not given) here?
A: 75%

Q: With `O=Cc1cn2c3c1ccc1c4ccccc4n(c13)CC(OCCN1CCCC1)C2` (stereo not given) as the compound, how does the Activity read?
A: 84%

Q: With `O=Cc1cn2c3c1ccc1c4ccccc4n(c13)CC(OCCCN1CCCCC1)C2` (stereo not given) as the compound, how does the Activity read?
A: 66%

Q: With `O=Cc1cn2c3c1ccc1c4ccccc4n(c13)CC(OCCCN1CCCC1)C2` (stereo not given) as the compound, how does the Activity read?
A: 58%

Q: How did the Activity turn out when `CCN(CC)CCCOC1Cn2cc(C=O)c3ccc4c5ccccc5n(c4c32)C1` (stereo not given) was run?
A: 71.6%

Q: `Cc1ccc(S(=O)(=O)OCCOC2Cn3cc(C=O)c4ccc5c6ccccc6n(c5c43)C2)cc1` (stereo not given) was tested. Which Activity did it give?
A: 78%

Q: For `CN1CCN(CCOC2Cn3cc(C=O)c4ccc5c6ccccc6n(c5c43)C2)CC1` (stereo not given), which Activity is on record?
A: 94%

Q: For `O=Cc1cn2c3c1ccc1c4ccccc4n(c13)CC(OCCO)C2` (stereo not given), which Activity is on record?
A: 44%

Q: How did the Activity turn out when `N#CCOC1Cn2cc(C=O)c3ccc4c5ccccc5n(c4c32)C1` (stereo not given) was run?
A: 9.5%

Q: For `O=Cc1cn2c3c1ccc1c4ccccc4n(c13)CC(OCCCBr)C2` (stereo not given), which Activity is on record?
A: 54%

System: IPC81
Experiment: Induction of apoptosis in rat IPC81 cells assessed as chromatin condensation and fragmentation at 100 uM after 72 hrs by Hoechst 33342 staining-based visual and UV microscopic analysis
Format: functional, cell-based
Details: not given

Q: For `O=Cc1cn2c3c1ccc1c4ccccc4n(c13)CC(OCCCN1CCCCC1)C2` (stereo not given), which Activity is on record?
A: Active

Q: `O=Cc1cn2c3c1ccc1c4ccccc4n(c13)CC(OCCO)C2` (stereo not given) was tested. Which Activity did it give?
A: Active

Biological target: T1, Serine/threonine-protein kinase pim-1
Experiment: Inhibition of human Pim-1 using RSRHSSYPAGT as substrate measured for 30 mins in presence of [gamma-33P]-ATP
Details: not given
Target sequence in this assay (P11309 whole entry): as the sequence (P11309 whole entry, looked up) above

Q: How did the IC50 turn out when `O=Cc1cn2c3c1ccc1c4ccccc4n(c13)CC(OCCO)C2` (stereo not given) was run?
A: 1100 nM

Q: `N#CCOC1Cn2cc(C=O)c3ccc4c5ccccc5n(c4c32)C1` (stereo not given) was tested. Which IC50 did it give?
A: 390 nM

Q: With `O=Cc1cn2c3c1ccc1c4ccccc4n(c13)CC(OCCCBr)C2` (stereo not given) as the compound, how does the IC50 read?
A: 740 nM

Biological target: T2, Serine/threonine-protein kinase pim-3 (Homo sapiens, UniProt Q86V86)
Experiment: Inhibition of human Pim-3 using RSRHSSYPAGT as substrate assessed as residual activity at 1 uM measured for 30 mins in presence of [gamma-33P]-ATP relative to control
Details: not given

Q: `O=Cc1cn2c3c1ccc1c4ccccc4n(c13)CC(OCCCN1CCOCC1)C2` (stereo not given) was tested. Which Activity did it give?
A: 70%

Q: `O=Cc1cn2c3c1ccc1c4ccccc4n(c13)CC(OCCN1CCCC1)C2` (stereo not given) was tested. Which Activity did it give?
A: 48%

Q: `O=Cc1cn2c3c1ccc1c4ccccc4n(c13)CC(OCCCN1CCCCC1)C2` (stereo not given) was tested. Which Activity did it give?
A: 45%

Q: For `O=Cc1cn2c3c1ccc1c4ccccc4n(c13)CC(OCCCN1CCCC1)C2` (stereo not given), which Activity is on record?
A: 54%

Q: How did the Activity turn out when `CCN(CC)CCCOC1Cn2cc(C=O)c3ccc4c5ccccc5n(c4c32)C1` (stereo not given) was run?
A: 60.8%

Q: How did the Activity turn out when `Cc1ccc(S(=O)(=O)OCCOC2Cn3cc(C=O)c4ccc5c6ccccc6n(c5c43)C2)cc1` (stereo not given) was run?
A: 65%

Q: Which Activity does the source give for `CN1CCN(CCOC2Cn3cc(C=O)c4ccc5c6ccccc6n(c5c43)C2)CC1` (stereo not given) here?
A: 60%

Q: With `O=Cc1cn2c3c1ccc1c4ccccc4n(c13)CC(OCCO)C2` (stereo not given) as the compound, how does the Activity read?
A: 30%

Q: How did the Activity turn out when `N#CCOC1Cn2cc(C=O)c3ccc4c5ccccc5n(c4c32)C1` (stereo not given) was run?
A: 10.3%

Q: For `O=Cc1cn2c3c1ccc1c4ccccc4n(c13)CC(OCCCBr)C2` (stereo not given), which Activity is on record?
A: 40%

Biological target: T2, Serine/threonine-protein kinase pim-3
Experiment: Inhibition of human Pim-3 using RSRHSSYPAGT as substrate assessed as residual activity at 10 uM measured for 30 mins in presence of [gamma-33P]-ATP relative to control
Details: not given

Q: Which Activity does the source give for `O=Cc1cn2c3c1ccc1c4ccccc4n(c13)CC(OCCCN1CCOCC1)C2` (stereo not given) here?
A: 24%

Q: With `O=Cc1cn2c3c1ccc1c4ccccc4n(c13)CC(OCCN1CCCC1)C2` (stereo not given) as the compound, how does the Activity read?
A: 16.4%

Q: `O=Cc1cn2c3c1ccc1c4ccccc4n(c13)CC(OCCCN1CCCCC1)C2` (stereo not given) was tested. Which Activity did it give?
A: 20%

Q: For `O=Cc1cn2c3c1ccc1c4ccccc4n(c13)CC(OCCCN1CCCC1)C2` (stereo not given), which Activity is on record?
A: 18.3%

Q: How did the Activity turn out when `CCN(CC)CCCOC1Cn2cc(C=O)c3ccc4c5ccccc5n(c4c32)C1` (stereo not given) was run?
A: 24%

Q: `Cc1ccc(S(=O)(=O)OCCOC2Cn3cc(C=O)c4ccc5c6ccccc6n(c5c43)C2)cc1` (stereo not given) was tested. Which Activity did it give?
A: 80%

Q: With `CN1CCN(CCOC2Cn3cc(C=O)c4ccc5c6ccccc6n(c5c43)C2)CC1` (stereo not given) as the compound, how does the Activity read?
A: 28%

Q: With `O=Cc1cn2c3c1ccc1c4ccccc4n(c13)CC(OCCO)C2` (stereo not given) as the compound, how does the Activity read?
A: 10.8%

Q: How did the Activity turn out when `N#CCOC1Cn2cc(C=O)c3ccc4c5ccccc5n(c4c32)C1` (stereo not given) was run?
A: 5%

Q: For `O=Cc1cn2c3c1ccc1c4ccccc4n(c13)CC(OCCCBr)C2` (stereo not given), which Activity is on record?
A: 11%

Biological target: T2, Serine/threonine-protein kinase pim-3
Experiment: Inhibition of human Pim-3 using RSRHSSYPAGT as substrate measured for 30 mins in presence of [gamma-33P]-ATP
Details: not given

Q: How did the IC50 turn out when `O=Cc1cn2c3c1ccc1c4ccccc4n(c13)CC(OCCO)C2` (stereo not given) was run?
A: 700 nM

Q: `N#CCOC1Cn2cc(C=O)c3ccc4c5ccccc5n(c4c32)C1` (stereo not given) was tested. Which IC50 did it give?
A: 190 nM

Q: For `O=Cc1cn2c3c1ccc1c4ccccc4n(c13)CC(OCCCBr)C2` (stereo not given), which IC50 is on record?
A: 340 nM
